The source of these data is patent publication US7112589B2, “Cysteine protease inhibitors with 2-cyano-4-amino-pyrimidine structure and cathepsin k inhibitory activity for the treatment of inflammations and other diseases” (Novartis AG, priority 2001, dated 2006).

Structures are written as SMILES.

This test has as its target T1, recombinant human cathepsin K (Homo sapiens, UniProt P43235).
T1 sequence (P43235 115-329): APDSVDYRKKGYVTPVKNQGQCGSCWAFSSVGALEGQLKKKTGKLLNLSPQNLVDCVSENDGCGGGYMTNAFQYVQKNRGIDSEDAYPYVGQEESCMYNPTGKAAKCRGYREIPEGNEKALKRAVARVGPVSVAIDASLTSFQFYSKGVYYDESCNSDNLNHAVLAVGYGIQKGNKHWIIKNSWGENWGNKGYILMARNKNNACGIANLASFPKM
The test is described as follows: in vitro inhibition of recombinant human cathepsin K (Z-Phe-Arg-AMCA fluorescence assay). Format: biochemical. Particulars: recombinant human cathepsin K 0.16 nM, Z-Phe-Arg-AMCA substrate, pH 7.0, 30 min preincubation, 30 min incubation; read-out: IC50s for inhibition of human cathepsin K. The protocol:
The in vitro assay is carried out as follows:
The assay is performed in 96 well microtiter plates at ambient temperature using recombinant human cathepsin K. Inhibition of cathepsin K is assayed at a constant enzyme (0.16 nM) and substrate concentration ([…] Z-Phe-Arg-AMCA-Peptide Institute Inc. Osaka, Japan) in 100 mM sodium phosphate buffer, pH 7.0, containing 2 mM dithiothreitol, 20 mM Tween 80 and 1 mM EDTA. Cathepsin K is preincubated with the inhibitors for 30 min, and the reaction is initiated by the addition of substrate. After 30 min incubation the reaction is stopped by the addition of E-64 (2 mM), and fluorescence intensity is read on a multi-well plate reader at excitation and emission wavelengths of 360 and 460 nm, respectively.

With `COCCN1CCC(Cc2ccc(C(=O)NCc3cnc(C#N)nc3NCC(C)(C)C)cc2)CC1` [Example I-23, N-[2-Cyano-4-(2,2-dimethyl-propylamino)-pyrimidin-5-ylmethyl]-4-[1-(2-methoxy-ethyl)-piperidin-4-ylmethyl]-benzamide], the IC50 came out at 1.5 nM.
The figure for `CN1CCN(Cc2ccc(C(=O)NCc3cnc(C#N)nc3NCC(C)(C)C)cc2)CC1` [Example I-22, N-[2-Cyano-4-(2,2-dimethyl-propylamino)-pyrimidin-5-ylmethyl]-4-(4-methyl-piperazin-1-ylmethyl)-benzamide] is 3 nM.
